The term IC50 denotes the concentration that inhibits the measured activity by half.

Each structure is given as a SMILES string.

Here are results for 23 molecules from patent US12404260B2, “Pyridine rings containing derivatives as MALT1 inhibitors” (Janssen Pharmaceutica NV, priority 2019, dated 2025).

The target in assay [1] is T1, full-length MALT1 protein (Strep-MALT1(1-824)-His) (Homo sapiens, UniProt Q9UDY8).
T1 construct: full-length MALT1 protein (Strep-MALT1(1-824)-His) purified from baculovirus-infected insect cells; Strep (N); His (C); made in house; host or cells: baculovirus-infected insect cells
T1 sequence (Q9UDY8 1-824): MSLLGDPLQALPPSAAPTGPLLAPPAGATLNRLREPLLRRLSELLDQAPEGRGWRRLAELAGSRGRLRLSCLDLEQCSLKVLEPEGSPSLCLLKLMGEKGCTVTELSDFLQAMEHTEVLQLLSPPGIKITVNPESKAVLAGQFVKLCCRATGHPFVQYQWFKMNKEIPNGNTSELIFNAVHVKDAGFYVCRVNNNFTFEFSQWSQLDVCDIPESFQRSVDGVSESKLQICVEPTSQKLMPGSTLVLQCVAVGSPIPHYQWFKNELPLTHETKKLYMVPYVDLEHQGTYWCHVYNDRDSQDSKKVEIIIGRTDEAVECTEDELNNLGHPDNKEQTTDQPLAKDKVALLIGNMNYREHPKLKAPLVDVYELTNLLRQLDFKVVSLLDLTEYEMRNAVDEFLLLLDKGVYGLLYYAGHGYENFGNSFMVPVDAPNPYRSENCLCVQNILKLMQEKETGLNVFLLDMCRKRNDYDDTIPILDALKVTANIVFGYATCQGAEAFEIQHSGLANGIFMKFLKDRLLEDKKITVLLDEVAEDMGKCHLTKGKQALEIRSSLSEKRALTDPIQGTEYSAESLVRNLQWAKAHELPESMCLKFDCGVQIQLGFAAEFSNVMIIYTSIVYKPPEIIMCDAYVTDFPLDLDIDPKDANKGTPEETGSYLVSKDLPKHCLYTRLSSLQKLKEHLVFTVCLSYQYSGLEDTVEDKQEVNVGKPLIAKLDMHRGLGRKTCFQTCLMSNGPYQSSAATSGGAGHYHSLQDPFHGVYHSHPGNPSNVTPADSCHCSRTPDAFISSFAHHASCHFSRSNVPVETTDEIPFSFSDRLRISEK
The assay can be described thus: MALT1 Biochemical Protease Assay. The conditions noted are these: 10 nM FL MALT1, 200 μM Ac-LRSR-AMC, 50 min pre-incubation, 4 h at RT; read-out: MALT1_Biochemical activity (Ac-LRSR-amc) IC50. Here is the method:
MALT1 protease activity was assessed in an in vitro assay using a tetrapeptide as substrate and full-length MALT1 protein (Strep-MALT1(1-824)-His) purified from baculovirus-infected insect cells. The tetrapeptide LRSR is coupled to AMC (7-amino-4-methylcoumarin) and provides a quenched, fluorescent substrate for the MALT1 protease (SM Biochemicals). Cleavage of AMC from the Arginine residue results in an increase in coumarin fluorescence measured at 460 nm (excitation 355 nm). The final assay buffer consisted of 10 nM FL MALT1 protein, 200 μM Ac-LRSR-AMC, 50 mM Tris pH 7.5, 0.6 M Citrate, 1 mM DTT, 1 mM EDTA, 0.05% BSA and 1.5% DMSO. Test compounds were spotted at 50 nL in 100% DMSO per well of a black 384-Proxiplate (Perkin Elmer). Test compound concentrations ranged from 30 μM to 0.5 nM using 11 dilution steps (1:3). Background signal was measured from control wells containing assay buffer without enzyme which functions as low control (LC). High control (HC) values were generated using the reaction with enzyme but no compound treatment. Compounds were pre-incubated with MALT1 enzyme for 50 minutes at RT. Substrate was added subsequently and fluorescence was measured in Labsystems fluoroskan at excitation 355 nm and emission 460 nm to determine time 0. The reaction was subsequently incubated for 4 h at RT and fluorescence was measured. For IC50 calculations, timepoint 0 was subtracted from the 4 h timepoint to correct for any potential autofluorescence of the compounds. The enzyme reaction was linear during the 4 h incubation period. Characterization of the substrate Ac-LRSR-AMC determined the Michaelis constant KM at 200 μM.
IC50 values were calculated using the following formula (Z prime should be >0.5): […]
A best-fit curve was fitted by a minimum sum of squares method to the plot of % Controlmin vs. compound concentration. From this an IC50 value (inhibitory concentration causing 50% inhibition) can be obtained. An estimate of the slope of the plot in terms of the Hill coefficient was also obtained.
Used in “Lexis Dose Response Curve Fitting” Version 1.0.

Assay [2] deals with secretion of IL6 by OCI-LY3 ABC-DLBCL cells. The assay can be described thus: Human IL6 Mesoscale assay (OCI-LY3). In kind it is cell-based. As to conditions: 24 h incubation, IL6 in supernatant. How it is done: (§1) NFKB signaling regulates the secretion of multiple cytokines, including IL6 and IL10. Secretion of the cytokines IL6 and IL10 by OCI-LY3 ABC-DLBCL cells was measured using a mesoscale assay. Inhibition of NFKB signaling by MALT1 inhibitors results in a decrease of IL6/10 secretion.
(§2) OCI-LY3 cells were propagated in RPMI-1640 (Sigma Aldrich) supplemented with 10% fetal bovine serum (HyClone), 1 mM sodium pyruvate (Invitrogen), 2 mM L-glutamine (Sigma Aldrich) and 1% PenStrep (Sigma Aldrich). Cell passage number should not exceed 30. Cells should be kept between 0.5-2.5 million cells per mL during culturing and cells should be supplemented every 2-3 days with fresh 50 μM beta-mercaptoethanol. No beta-mercaptoethanol was used during the mesoscale assay.
(§3) For the Mesoscale assay, 100,000 OCI-LY3 cells were seeded per well into black-colored 96-well plates with clear bottom (Corning #3904) and test compounds were added in 9 dilution steps (1:2) ranging from 15 μM to 58.6 nM (final DMSO concentration 0.3%). DMSO control wells were used to determine the maximum signal (High Control (HC)). Treatment with the BTK inhibitor RN486 in a dose range from 30 nM to […] (9 dilutions of 1:2) served as a positive control for NFKB pathway inhibition and was used to determine the maximum inhibition (Low Control (LC)). Compounds and cells were incubated for 24 h at 37° C. and 5% CO2 (assay volume is 150 μL). After 24 h of incubation 50 μL of the supernatant was transferred to a MSD plate (V-Plex Proinflammation Panel 1 (human) kit, Mesoscale (MSD)) and incubated for 2 h with vigorous shaking (600 rpm) at room temperature. Following incubation, plates were washed 3× with PBS+0.05% Tween-20 and 25 μL detection antibody solution (IL6 & IL10 antibodies in diluent 3 (MSD)) was added per well followed by 2 h of incubation with vigorous shaking (600 rpm) at room temperature. After 3× washes with PBS+0.05% Tween-20, plates were incubated with 150 μL 2× Read Buffer T and read on SECTOR imager.

In assay [3] the test system is secretion of IL10 by OCI-LY3 ABC-DLBCL cells. Kind of assay: Human IL10 Mesoscale assay (OCI-LY3). The conditions noted are these: 24 h incubation, IL10 in supernatant. In kind it is cell-based. Here is the method: as §1, §2, §3

With `CCOC(=O)COc1cncc(NC(=O)Nc2cnc(-n3nccn3)c(Cl)c2)c1C(C)OC` (racemic) [Co. 14], the IC50 came to 3.24 µM in assay [1], 11 µM in assay [2] and 8.13 µM in assay [3].

On to `COC(C)c1c(C)cncc1NC(=O)Nc1cnc(-n2nccn2)c(Cl)c1` (racemic) [Co. 20], for which the IC50 in assay [1] was 4.17 µM; in assay [2], more than 3.02 µM; in assay [3] it was more than 3.02 µM.

As to `COC(C)c1c(NC(=O)Nc2cnc(-n3nccn3)c(Cl)c2)cncc1C1CC1` (racemic) [Co. 28], the IC50 in assay [1] worked out at 0.6 µM; in assay [2] it was 1.95 µM; in assay [3], 1.1 µM.

With `C=C(C)c1cncc(NC(=O)Nc2cnc(-n3nccn3)c(Cl)c2)c1C(C)OC` (racemic) [Co. 29], the IC50 was determined as 0.98 µM in assay [1], 1.82 µM in assay [2] and 1.78 µM in assay [3].

For the molecule `COC(C)c1c(NC(=O)Nc2cnc(-n3nccn3)c(Cl)c2)cncc1C(N)=O` (racemic) [Co. 39], the IC50 was 8.71 µM in assay [1], more than 15.1 µM in assay [2] and 14.1 µM in assay [3].

For `COC(C)c1c(Br)c(C)nc(C)c1NC(=O)Nc1cnc(-n2nccn2)c(Cl)c1` (racemic) [Co. 49], the IC50 was determined as 0.62 µM in assay [1], 2.34 µM in assay [2] and 1.7 µM in assay [3].

In the case of `COC(C)c1cc(C)ncc1NC(=O)Nc1cnc(-n2nccn2)c(Cl)c1` (racemic) [Co. 106], the IC50 is 9.12 µM in assay [1], 7.24 µM in assay [2] and 5.75 µM in assay [3].

Turning to `COC(C)c1c(Br)cncc1NC(=O)Nc1cnc(-n2nccn2)c(Cl)c1` (single isomer, unassigned) [Co. 18], the half-maximal inhibitory concentration (IC50) in assay [1] turned out to be 0.1 µM; in assay [2], 0.1 µM; in assay [3] it was 0.19 µM.

Turning to `COC(C)c1c(NC(=O)Nc2cnc(-n3nccn3)c(C(F)(F)F)c2)cnc(C)c1Br` (single isomer, unassigned) [Co. 59], the IC50 in assay [1] was determined as 0.01 µM; in assay [2] it was 0.1 µM; in assay [3] it was 0.07 µM.

Turning to `COC(C)c1c(NC(=O)Nc2ccnc(C(F)(F)F)c2)cnc(C)c1Cl` (single isomer, unassigned) [Co. 65], the IC50 in assay [1] was 15.1 µM; in assay [2], more than 15 µM; in assay [3] it was 6.61 µM.

For `COC(C)c1c(NC(=O)Nc2cnc(C3CC3)c(C(F)(F)F)c2)cnc(C)c1Cl` (single isomer, unassigned) [Co. 68], the figures for the IC50 in assay [1], in assay [2] and in assay [3] were more than 30.2 µM, more than 15 µM and more than 15 µM, respectively.

As for `COc1ncc(NC(=O)Nc2cnc(C)c(Br)c2C(C)OC)cc1C#N` (single isomer, unassigned) [Co. 98], the IC50 in assay [1] amounted to 5.89 µM; in assay [2], 5.75 µM; in assay [3], 2.57 µM.

On to `COC(C)c1c(NC(=O)Nc2cnc(-n3ncc(C(C)O)n3)c(Cl)c2)cnc(C)c1C#N` (single isomer, unassigned) [Co. 114], for which the IC50 in assay [1] amounted to 0.06 µM; in assay [2], 0.4 µM; in assay [3], 0.17 µM.

In the case of `COC(C)c1c(NC(=O)Nc2cnc(-n3nccn3)c(C(F)(F)F)c2)cnc(C(F)F)c1C#N` (single isomer, unassigned) [Co. 127], the IC50 is 0.03 µM in assay [1], 0.06 µM in assay [2] and 0.04 µM in assay [3].

Consider `COC(C)c1c(NC(=O)Nc2cnc(-n3nccn3)c(C(F)(F)F)c2)cnc(C(F)F)c1C#N` (single isomer, unassigned) [Co. 128], for which the IC50 in assay [1] came out at 0.23 µM; in assay [2] it was 0.46 µM; in assay [3], 0.21 µM.

In the case of `[2H]C([2H])([2H])Oc1cncc(NC(=O)Nc2cnc(-n3nccn3)c(C(F)(F)F)c2)c1[C@H](C)OC` (single isomer, unassigned) [Co. 129], the IC50 in assay [1] came out at 1.38 µM; in assay [2] (Homo sapiens), 2.29 µM; in assay [3] (Homo sapiens) it was 1.02 µM.

Turning to `[2H]C([2H])([2H])Oc1cncc(NC(=O)Nc2cnc(-n3nccn3)c(C(F)(F)F)c2)c1[C@@H](C)OC` (single isomer, unassigned) [Co. 130], the IC50 in assay [1] is 0.05 µM; in assay [2] (Homo sapiens), 0.19 µM; in assay [3] (Homo sapiens), approximately 0.11 µM.

On to `[2H]C([2H])([2H])O[C@@H](C)c1c(NC(=O)Nc2cnc(-n3nccn3)c(C(F)(F)F)c2)cncc1OC` (single isomer, unassigned) [Co. 131], for which the IC50 in assay [1] is 1.02 µM; in assay [2] (Homo sapiens), 2.34 µM; in assay [3] (Homo sapiens), approximately 0.89 µM.

Turning to `[2H]C([2H])([2H])O[C@H](C)c1c(NC(=O)Nc2cnc(-n3nccn3)c(C(F)(F)F)c2)cncc1OC` (single isomer, unassigned) [Co. 132], the IC50 in assay [1] was found to be 0.05 µM; in assay [2] (Homo sapiens), 0.15 µM; in assay [3] (Homo sapiens) it was 0.06 µM.

As to `CO[C@@H](C)c1c(NC(=O)Nc2cnc(-n3nccn3)c(C(F)(F)F)c2)cnc(C(F)F)c1Cl` (single isomer, unassigned) [Co. 133], the concentration for half-maximal inhibition (IC50) is 0.55 µM in assay [1], 0.93 µM in assay [2] (Homo sapiens) and 0.31 µM in assay [3] (Homo sapiens).

In the case of `CO[C@H](C)c1c(NC(=O)Nc2cnc(-n3nccn3)c(C(F)(F)F)c2)cnc(C(F)F)c1Cl` (single isomer, unassigned) [Co. 134], the IC50 in assay [1] stood at 0.04 µM; in assay [2] (Homo sapiens) it was 0.08 µM; in assay [3] (Homo sapiens), 0.08 µM.

Consider `CO[C@H](C)c1c(NC(=O)Nc2cnc(OC(F)F)c(Cl)c2)cnc(N)c1Cl` (single isomer, unassigned) [Co. 136], for which the IC50 came out at 0.06 µM in assay [1], 0.06 µM in assay [2] (Homo sapiens) and 0.03 µM in assay [3] (Homo sapiens).

Turning to `CO[C@H](C)c1c(NC(=O)Nc2cnc(OC(F)F)c(Cl)c2)cnc(C)c1C#N` [Co. 71], the half-inhibitory concentration (IC50) in assay [2] turned out to be 0.32 µM; in assay [3], 0.15 µM.
